ChEMBL document CHEMBL1201862, “PubChem BioAssay data set” (2004)
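Where inhibition never reached the appropriate level, the endpoint shown equals the highest concentration tested. Otherwise, values were interpolated linearly from a five-concentration, 48-hour dose response in 96-well plates. Here, GI50 denotes the concentration required for 50% inhibition of growth.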 The source made the active and inactive calls. No stated cut-off is given here; in the data, active = GI50 up to about 1.1 µM and inactive = higher. Where a SMILES comes first, the peptide text is derived from it. The star is where a group is joined. Boc = CC(C)(C)OC(=O)*; OBn = c1ccc(CO*)cc1

Key:
Experiment in all cases: inhibition of tumour cell growth, NCI panel, 48 h
[1] = test system: HCT-15
[2] = test system: HOP-62
[3] = test system: SK-MEL-28
[4] = test system: M14
[5] = test system: HCT-116
[6] = test system: SNB-19
[7] = test system: Hs-578T
[8] = test system: DU-145
[9] = test system: CCRF-CEM
[10] = test system: SN12C
[11] = test system: OVCAR-4
[12] = test system: SF-268
[13] = test system: NCI-H226
[14] = test system: MDA-MB-435
[15] = test system: SNB-75
[16] = test system: MCF7
[17] = test system: MDA-N
[18] = test system: K562
[19] = test system: SF-295
[20] = test system: PC-3
[21] = test system: KM12
[22] = test system: HCC 2998
[23] = test system: U-251
[24] = test system: T47D
[25] = test system: HT-29
[26] = test system: A549
[27] = test system: SF-539
[28] = test system: EKVX
[29] = test system: SK-OV-3
[30] = test system: OVCAR-5
[31] = test system: COLO 205
[32] = test system: SK-MEL-5
[33] = test system: 786-0
[34] = test system: RXF 393
[35] = test system: ACHN
[36] = test system: SR
[37] = test system: MDA-MB-231
[38] = test system: HL-60
[39] = test system: RPMI-8226
[40] = test system: MOLT-4
[41] = test system: NCI-H23
[42] = test system: TK-10
[43] = test system: UACC-62
[44] = test system: UO-31
[45] = test system: NCI/ADR-RES
[46] = test system: OVCAR-3
[47] = test system: IGROV-1
[48] = test system: NCI-H522
[49] = test system: CAKI-1
[50] = test system: Malme-3M
[51] = test system: SK-MEL-2
[52] = test system: NCI-H460
[53] = test system: SW-620
[54] = test system: OVCAR-8
[55] = test system: UACC-257
[56] = test system: LOX IMVI
[57] = test system: HOP-92
[58] = test system: A498

COc1cc([N+](=O)[O-])c(S(=O)(=O)[O-])cc1-[n+]1nc(C(=O)Nc2ccccc2)nn1-c1ccc([N+](=O)[O-])c(S(=O)(=O)O)c1
GI50 [1]: > 100 µM
GI50 [2]: > 100 µM (inactive)
GI50 [3]: > 100 µM (inactive)
GI50 [4]: > 100 µM (inactive)
GI50 [5]: > 100 µM (inactive)
GI50 [6]: > 100 µM (inactive)
GI50 [7]: > 100 µM (inactive)
GI50 [8]: > 100 µM (inactive)
GI50 [9]: > 100 µM (inactive)
GI50 [10]: > 100 µM (inactive)
GI50 [11]: > 100 µM (inactive)
GI50 [12]: > 100 µM (inactive)
GI50 [13]: > 100 µM (inactive)
GI50 [14]: > 100 µM (inactive)
GI50 [15]: > 100 µM (inactive)
GI50 [16]: > 100 µM (inactive)
GI50 [17]: > 100 µM (inactive)
GI50 [18]: > 100 µM (inactive)
GI50 [19]: > 100 µM (inactive)
GI50 [20]: > 100 µM (inactive)
GI50 [21]: > 100 µM (inactive)
GI50 [22]: > 100 µM (inactive)
GI50 [23]: > 100 µM (inactive)
GI50 [24]: > 100 µM (inactive)
GI50 [25]: > 100 µM (inactive)
GI50 [26]: > 100 µM (inactive)
GI50 [27]: > 100 µM (inactive)
GI50 [28]: > 100 µM (inactive)
GI50 [29]: > 100 µM (inactive)
GI50 [30]: > 100 µM (inactive)
GI50 [31]: > 100 µM (inactive)
GI50 [32]: > 100 µM (inactive)
GI50 [33]: > 100 µM (inactive)
GI50 [34]: > 100 µM (inactive)
GI50 [35]: > 100 µM (inactive)
GI50 [36]: > 100 µM (inactive)
GI50 [37]: 52.2 µM (inactive)
GI50 [38]: 84.7 µM (inactive)
GI50 [39]: > 100 µM (inactive)
GI50 [40]: > 100 µM (inactive)
GI50 [41]: > 100 µM (inactive)
GI50 [42]: > 100 µM (inactive)
GI50 [43]: > 100 µM (inactive)
GI50 [44]: > 100 µM (inactive)
GI50 [45]: > 100 µM (inactive)
GI50 [46]: > 100 µM (inactive)
GI50 [47]: > 100 µM (inactive)
GI50 [48]: > 100 µM (inactive)
GI50 [49]: > 100 µM (inactive)
GI50 [50]: > 100 µM (inactive)
GI50 [51]: > 100 µM (inactive)
GI50 [52]: > 100 µM (inactive)
GI50 [53]: > 100 µM (inactive)

COc1cc(C2c3cc4c(cc3[C@@H](Nc3ccccc3)C3COC[C@H]23)OCO4)cc(OC)c1O (stereo partly drawn)
GI50 [1]: 1.12 µM
GI50 [2]: 1.48 µM (inactive)
GI50 [3]: 5.77 µM (inactive)
GI50 [4]: 2.59 µM (inactive)
GI50 [5]: 1.41 µM (inactive)
GI50 [6]: 1.69 µM (inactive)
GI50 [7]: 0.736 µM (active)
GI50 [9]: 0.235 µM (active)
GI50 [10]: 1.9 µM (inactive)
GI50 [11]: 16.9 µM (inactive)
GI50 [12]: 3.03 µM (inactive)
GI50 [14]: 7.13 µM (inactive)
GI50 [15]: 2.23 µM (inactive)
GI50 [16]: 0.512 µM (active)
GI50 [17]: 7.35 µM (inactive)
GI50 [18]: 1.8 µM (inactive)
GI50 [19]: 0.485 µM (active)
GI50 [20]: 3.33 µM (inactive)
GI50 [54]: 2.82 µM (inactive)
GI50 [21]: 2.84 µM (inactive)
GI50 [22]: 5.83 µM (inactive)
GI50 [23]: 0.897 µM (active)
GI50 [24]: 1.19 µM (inactive)
GI50 [25]: 3.06 µM (inactive)
GI50 [26]: 0.35 µM (active)
GI50 [27]: 1.26 µM (inactive)
GI50 [28]: 15.4 µM (inactive)
GI50 [29]: 2.92 µM (inactive)
GI50 [30]: 2.36 µM (inactive)
GI50 [31]: 3.28 µM (inactive)
GI50 [32]: 2.3 µM (inactive)
GI50 [33]: 1.1 µM (active)
GI50 [35]: 0.483 µM (active)
GI50 [36]: 0.465 µM (active)
GI50 [37]: 1.64 µM (inactive)
GI50 [38]: 0.573 µM (active)
GI50 [39]: 0.631 µM (active)
GI50 [40]: 0.0665 µM (active)
GI50 [42]: 7.46 µM (inactive)
GI50 [44]: 1.15 µM (inactive)
GI50 [45]: 10.9 µM (inactive)
GI50 [47]: 8.34 µM (inactive)
GI50 [48]: 2.2 µM (inactive)
GI50 [55]: 14.6 µM (inactive)
GI50 [52]: 0.148 µM (active)
GI50 [53]: 1.81 µM (inactive)

COc1ccc(Nc2nc3cc(N)cc(N)c3nc2-c2ccccc2)cc1
GI50 [25]: 20.3 µM (inactive)
GI50 [55]: 14.4 µM (inactive)

CC(C)(C)OC(=O)NC(Cc1ccccc1)C(=O)NC(Cc1ccccc1)C(=O)NCC(=O)OCc1ccccc1 (stereo not drawn) (Boc-Phe-Phe-Gly-OBn; configuration not given here)
GI50 [1]: 17.9 µM
GI50 [2]: 31.1 µM (inactive)
GI50 [3]: 23.3 µM (inactive)
GI50 [4]: 20.8 µM (inactive)
GI50 [5]: 18.3 µM (inactive)
GI50 [6]: 35 µM (inactive)
GI50 [8]: 17.9 µM (inactive)
GI50 [9]: 16.4 µM (inactive)
GI50 [10]: 21.7 µM (inactive)
GI50 [11]: 24.7 µM (inactive)
GI50 [12]: 15.3 µM (inactive)
GI50 [56]: 7.93 µM (inactive)
GI50 [14]: 8.36 µM (inactive)
GI50 [15]: 37.8 µM (inactive)
GI50 [16]: 51.5 µM (inactive)
GI50 [17]: 19.9 µM (inactive)
GI50 [18]: 12.5 µM (inactive)
GI50 [19]: > 10 µM (inactive)
GI50 [20]: 16.3 µM (inactive)
GI50 [54]: 30.1 µM (inactive)
GI50 [57]: > 100 µM (inactive)
GI50 [22]: 16.3 µM (inactive)
GI50 [23]: 18.7 µM (inactive)
GI50 [24]: 77.6 µM (inactive)
GI50 [25]: 16.7 µM (inactive)
GI50 [27]: 19 µM (inactive)
GI50 [28]: 45 µM (inactive)
GI50 [29]: 22.8 µM (inactive)
GI50 [30]: 37.5 µM (inactive)
GI50 [31]: 29.8 µM (inactive)
GI50 [33]: 17.1 µM (inactive)
GI50 [35]: 47.3 µM (inactive)
GI50 [36]: 18.4 µM (inactive)
GI50 [37]: > 10 µM (inactive)
GI50 [38]: 19.7 µM (inactive)
GI50 [39]: 15.4 µM (inactive)
GI50 [40]: 22.2 µM (inactive)
GI50 [41]: 22.8 µM (inactive)
GI50 [58]: > 100 µM (inactive)
GI50 [42]: 19.7 µM (inactive)
GI50 [43]: 16.3 µM (inactive)
GI50 [44]: 41 µM (inactive)
GI50 [45]: > 100 µM (inactive)
GI50 [46]: 20 µM (inactive)
GI50 [47]: 13.2 µM (inactive)
GI50 [48]: 6 µM (inactive)
GI50 [55]: > 100 µM (inactive)
GI50 [49]: 57.4 µM (inactive)
GI50 [50]: 44.5 µM (inactive)
GI50 [51]: 33.6 µM (inactive)
GI50 [52]: 23 µM (inactive)
GI50 [53]: 12.8 µM (inactive)
